Experiments:
Assay type in all cases: cell-based, human
AGS = assay: Cell viability drug screen, 12-point dose-response AUC; settings: AGS cells; 72 hours; 12-point dose-response
In short: (§1)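 Luminescent viability readings, taken 15 min after reagent addition at room temperature, were normalized to the 0.5% DMSO control to build 12-point dose-response curves. Trapezoidal integration gave the AUC. Cells had been plated at 5×10^3 per well and then exposed to half-log dilutions for 72 h.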

Hs746T = assay: as above; settings: Hs746T cells; 72 hours; 12-point dose-response
In short: (§2)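 Gastric cancer lines seeded 5×10^3 cells/well, dosed after 24 h with half-log 12-point compound dilutions (DMSO 0.5% control), then 72 h at 37 °C. Viability by luminescence, normalized to DMSO; AUC by trapezoidal method, averaged over repeats.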

KATO3 = assay: as above; settings: KATO3 cells; 72 hours; 12-point dose-response
In short: as §2

MKN1 = assay: as above; settings: MKN1 cells; 72 hours; 12-point dose-response
In short: as §2

MKN28 = assay: as above; settings: MKN28 cells; 72 hours; 12-point dose-response
In short: as §2

MKN45 = assay: as above; settings: MKN45 cells; 72 hours; 12-point dose-response
In short: as §1

MKN74 = assay: as above; settings: MKN74 cells; 72 hours; 12-point dose-response
In short: as §1

NCC19 = assay: as above; settings: NCC19 cells; 72 hours; 12-point dose-response
In short: as §2

NCC20 = assay: as above; settings: NCC20 cells; 72 hours; 12-point dose-response
In short: as §2

NCC24 = assay: as above; settings: NCC24 cells; 72 hours; 12-point dose-response
In short: as §2

NCC59 = assay: as above; settings: NCC59 cells; 72 hours; 12-point dose-response
In short: as §2

NCI_N87 = assay: as above; settings: NCI_N87 cells; 72 hours; 12-point dose-response
In short: as §2

OCUM1 = assay: as above; settings: OCUM1 cells; 72 hours; 12-point dose-response
In short: as §2

SK4 = assay: as above; settings: SK4 cells; 72 hours; 12-point dose-response
In short: as §2

SNU16 = assay: as above; settings: SNU16 cells; 72 hours; 12-point dose-response
In short: as §2

SNU1750 = assay: as above; settings: SNU1750 cells; 72 hours; 12-point dose-response
In short: as §2

SNU1967 = assay: as above; settings: SNU1967 cells; 72 hours; 12-point dose-response
In short: as §2

SNU1 = assay: as above; settings: SNU1 cells; 72 hours; 12-point dose-response
In short: as §2

SNU216 = assay: as above; settings: SNU216 cells; 72 hours; 12-point dose-response
In short: as §1

SNU484 = assay: as above; settings: SNU484 cells; 72 hours; 12-point dose-response
In short: as §2

SNU601 = assay: as above; settings: SNU601 cells; 72 hours; 12-point dose-response
In short: as §2

SNU620 = assay: as above; settings: SNU620 cells; 72 hours; 12-point dose-response
In short: as §2

SNU638 = assay: as above; settings: SNU638 cells; 72 hours; 12-point dose-response
In short: as §2

SNU668 = assay: as above; settings: SNU668 cells; 72 hours; 12-point dose-response
In short: as §2

SNU719 = assay: as above; settings: SNU719 cells; 72 hours; 12-point dose-response
In short: as §1

YCC11 = assay: as above; settings: YCC11 cells; 72 hours; 12-point dose-response
In short: as §2

YCC2 = assay: as above; settings: YCC2 cells; 72 hours; 12-point dose-response
In short: as §2

YCC3 = assay: as above; settings: YCC3 cells; 72 hours; 12-point dose-response
In short: as §2

FU97 = assay: as above; settings: FU97 cells; 72 hours; 12-point dose-response
In short: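 Trapezoidal AUC of a 12-point, DMSO-normalized dose-response curve. Luminescent viability was measured after 72 h of exposure at 37° C to half-log serial dilutions (0.5% DMSO control), dosed 24 h after plating FU97 cells at 5×10^3 per well.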

[1] = system: SEM-type gastric cancer cell line; assay: Cell viability drug screen, AUC summary over SEM-type lines
Description: An FDA-approved small-molecule pharmacological compound (#L1300) and an anticancer compound for research (#L2000) were purchased from Selecckchem and a 10 mM solution was prepared in DMSO. A total of 1,345 compounds were tested the cell viability of the seven EMT gastric cancer cell lines.
Cells cultured for cell-based drug assay were inoculated into a 96-well white optical plate (Corning) at 5×10^3 cells per well. After 24 hours after inoculation, a 2.5 MJT (primary screen) or a half-log 12-serial diluent (secondary screen) of the pharmacological compound contained in DMSO is added to the cells with a robot using a BioMek FXp liquid processor (Beckman) to add to the cells at 50 mM. The final drug concentration in the 5 ns range and the DMSO specification control (0.5%) were calculated. The cells were then further incubated at 37° C. in a 5% CO2 incubator for 72 hours prior to measuring cell viability using the extra-GLO assay kit (Promega). The luminescent properties were measured after 15 min incubation at room temperature using a plate stacker equipped with a plate stacker. The normalized viability for the DMSO-based control was measured to generate a cell line-specific 12-point dose-response curve for each pharmacological compound, and then the area under the curve (AUC) was calculated using a trapezoidal method.

[2] = system: non-SEM-type gastric cancer cell line; assay: Cell viability drug screen, AUC summary over non-SEM-type lines; settings: in the non-SEM-type gastric cancer cell line

SMILES	area under the viability curve (AUC), normalized (AGS)	area under the viability curve (AUC), normalized (Hs746T)	area under the viability curve (AUC), normalized (KATO3)	area under the viability curve (AUC), normalized (MKN1)	area under the viability curve (AUC), normalized (MKN28)	area under the viability curve (AUC), normalized (MKN45)	area under the viability curve (AUC), normalized (MKN74)	area under the viability curve (AUC), normalized (NCC19)	area under the viability curve (AUC), normalized (NCC20)	area under the viability curve (AUC), normalized (NCC24)	area under the viability curve (AUC), normalized (NCC59)	area under the viability curve (AUC), normalized (NCI_N87)	area under the viability curve (AUC), normalized (OCUM1)	area under the viability curve (AUC), normalized (SK4)	area under the viability curve (AUC), normalized (SNU16)	area under the viability curve (AUC), normalized (SNU1750)	area under the viability curve (AUC), normalized (SNU1967)	area under the viability curve (AUC), normalized (SNU1)	area under the viability curve (AUC), normalized (SNU216)	area under the viability curve (AUC), normalized (SNU484)	other results
Nc1ccc(-c2ccc3ncc4ccc(=O)n(-c5cccc(C(F)(F)F)c5)c4c3c2)cn1 [Torin, Torin 2]	−1.701	−0.7581	2.66	−1.574	0.8861	0.6704	−0.1868	1.614	−1.598	0	1.584	0.3078	−0.1127	−2.722	0.9803	−0.787	−0.557	1.392	−0.4964	−0.505	area under the viability curve (AUC), normalized (SNU601): 0.4104; area under the viability curve (AUC), normalized (SNU620): 0.3965; area under the viability curve (AUC), normalized (SNU638): 0.3739; area under the viability curve (AUC), normalized (SNU668): 0.4391; area under the viability curve (AUC), normalized (SNU719): 3.841; area under the viability curve (AUC), normalized (YCC11): −2.299; area under the viability curve (AUC), normalized (YCC2): −0.06527; area under the viability curve (AUC), normalized (YCC3): 1.399; area under the viability curve (AUC), normalized (FU97): −1.526; normalized viability AUC [1]: negative; AUC value [2]: high
COCCn1c2c([n+](Cc3cnccn3)c1C)C(=O)c1ccccc1C2=O [YM155]	−1.512	−1.376	−0.3081	−2.0115	−1.021	0.6792	−1.305	3.608	0	−0.6903	0.1386	0.4168	1.685	−1.314	2.497	−2.624	−0.2044	1.212	0.09958	−2.56	area under the viability curve (AUC), normalized (SNU601): 1.661; area under the viability curve (AUC), normalized (SNU620): 1.29; area under the viability curve (AUC), normalized (SNU638): 0.5099; area under the viability curve (AUC), normalized (SNU668): −0.2961; area under the viability curve (AUC), normalized (SNU719): 3.789; area under the viability curve (AUC), normalized (YCC11): −1.419; area under the viability curve (AUC), normalized (YCC2): −0.4228; area under the viability curve (AUC), normalized (YCC3): 1.325; area under the viability curve (AUC), normalized (FU97): 1.301; normalized viability AUC [1]: negative; AUC value [2]: high
